How the values were obtained:
[1] = Pharmacokinetics of carfilzomib in plasma; assay type: in vivo, human; details: compared with carfilzomib monotherapy study
[2] = tested on: Japanese RRMM patients; details: carfilzomib monotherapy; cited from earlier work

CC(C)C[C@H](NC(=O)[C@H](CCc1ccccc1)NC(=O)CN1CCOCC1)C(=O)N[C@@H](Cc1ccccc1)C(=O)N[C@@H](CC(C)C)C(=O)[C@@]1(C)CO1 [carfilzomib]
Effect of lenalidomide and dexamethasone on carfilzomib pharmacokinetics [1]: did not appear to be affected
ORR [2]: 22.5%
